Like-named read-outs stand apart in the source and are kept apart here.
How the values were obtained:
[1] = target: T1, human μ opiate receptor (Homo sapiens, UniProt P35372); test: Affinity for the human μ opiate receptor ([3H]-naloxone displacement, CHO-K1 receptor membrane preparation, SPA); assay type: binding; settings: 1.5 h, Table 3, to be read in the same way as Table 1; test concentration 1 μM; read-out: μ
T1 construct: purchased PerkinElmer Life Sciences, Zaventem, Belgium RB-HOM; host or cells: CHO-K1 cells (membrane preparation)
Outline: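 At 1 μmol/l, compounds were scored for % displacement of 1 nmol/l [3H]-naloxone from CHO-K1-expressed human μ opiate receptor in a homogeneous SPA format (90 min, room temperature).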

[2] = target: T2, human bradykinin 1 receptor (B1R) (Homo sapiens, UniProt P46663); test: Functional investigation on the human bradykinin 1 receptor (B1R), Ca2+ FLIPR assay in CHO K1 hB1R cells; assay type: cell-based; settings: CHO-K1, B1R antagonism human, test substance 10 μM, read-out: B1R Ant. h [10 μM] % Inhibition
T2 construct: expressed in transfected cells; host or cells: CHO K1 cells
T2 sequence (P46663 1-353): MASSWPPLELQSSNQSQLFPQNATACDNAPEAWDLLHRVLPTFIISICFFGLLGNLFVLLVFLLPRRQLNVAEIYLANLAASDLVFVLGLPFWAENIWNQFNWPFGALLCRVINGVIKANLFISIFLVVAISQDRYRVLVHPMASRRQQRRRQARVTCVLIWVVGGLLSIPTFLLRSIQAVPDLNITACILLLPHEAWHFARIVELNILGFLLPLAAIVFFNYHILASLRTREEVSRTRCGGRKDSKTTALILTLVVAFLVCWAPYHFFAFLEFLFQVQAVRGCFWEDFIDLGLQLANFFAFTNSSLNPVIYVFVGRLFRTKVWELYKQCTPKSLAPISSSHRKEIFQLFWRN
Outline: (§1)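 Peak Ca2+-dependent fluorescence in B1R-transfected CHO K1 cells measures antagonism of an EC80 agonist challenge given 10-20 min after compound. Agonist is Lys-Des-Arg9-bradykinin for human, Des-Arg9-bradykinin for rat receptor.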

[3] = target: T3, bradykinin 1 receptor (B1R) of the rat (Rattus norvegicus, UniProt P97583); test: Functional investigation on the rat bradykinin 1 receptor (B1R), Ca2+ FLIPR assay in CHO K1 rB1R cells; assay type: cell-based; settings: CHO-K1, B1R antagonism rat, test substance 10 μM, read-out: B1R Ant. r [10 μM] % Inhibition
T3 construct: expressed in transfected cells; host or cells: CHO K1 cells
T3 sequence (P97583 1-337): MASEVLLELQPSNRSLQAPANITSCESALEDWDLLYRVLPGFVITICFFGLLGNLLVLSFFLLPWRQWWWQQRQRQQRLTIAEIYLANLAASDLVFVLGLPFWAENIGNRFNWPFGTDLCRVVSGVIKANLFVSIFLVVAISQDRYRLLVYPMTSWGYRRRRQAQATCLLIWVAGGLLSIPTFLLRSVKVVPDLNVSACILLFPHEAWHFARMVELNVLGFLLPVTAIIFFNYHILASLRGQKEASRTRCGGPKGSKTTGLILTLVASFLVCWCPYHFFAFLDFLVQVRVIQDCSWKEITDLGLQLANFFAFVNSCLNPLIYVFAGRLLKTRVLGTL
Outline: as §1

[4] = % inhibition compared with the maximum achievable inhibition

T1 sequence (P35372 whole entry): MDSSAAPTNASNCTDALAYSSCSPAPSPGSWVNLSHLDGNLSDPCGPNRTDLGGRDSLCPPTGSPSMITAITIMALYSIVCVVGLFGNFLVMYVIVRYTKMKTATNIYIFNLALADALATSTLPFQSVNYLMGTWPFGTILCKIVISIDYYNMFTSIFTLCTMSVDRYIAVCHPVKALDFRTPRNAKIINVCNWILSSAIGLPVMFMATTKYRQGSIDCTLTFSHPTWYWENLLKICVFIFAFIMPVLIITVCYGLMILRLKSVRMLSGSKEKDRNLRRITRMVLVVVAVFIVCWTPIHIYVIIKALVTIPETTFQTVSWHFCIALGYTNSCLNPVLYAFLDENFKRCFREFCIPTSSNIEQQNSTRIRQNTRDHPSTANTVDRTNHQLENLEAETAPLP

Row | SMILES | inhibition at 1 µM [1] | inhibition at 10 µM ([2]; Ca2+ FLIPR, CHO K1 hB1R cells) | inhibition at 10 µM ([3]; Ca2+ FLIPR, CHO K1 rB1R cells) | inhibition at 10 µM [2, 4] | inhibition at 10 µM [3, 4]
1 | COc1cc(C)c(S(=O)(=O)N2CCCC(OCC(=O)NCC3CCC(C(CCc4ccccc4)N4CCOCC4)CC3)C2)c(C)c1 (stereo not drawn) [Example 748, 2-(1-(4-methoxy-2,6-dimethylphenylsulfonyl)piperidin-3-yloxy)-N-((4-(1-morpholino-3-phenylpropyl)cyclohexyl)methyl)acetamide] | 20% | 92% | 78% |  | 
2 | COc1cc(C)c(S(=O)(=O)N2CCCC2COCC(=O)NCC2CCC(C(CCc3ccccc3)N3CCOCC3)CC2)c(C)c1 (stereo not drawn) [Example 749, 2-((1-(4-methoxy-2,6-dimethylphenylsulfonyl)pyrrolidin-2-yl)methoxy)-N-((4-(1-morpholino-3-phenylpropyl)cyclohexyl)methyl)acetamide] | 12% | 103% | 109% |  | 
3 | COc1cc(C)c(S(=O)(=O)N2CCCC2COCC(=O)NCC2CCC(C(CCc3ccccc3)N3CCCC3)CC2)c(C)c1 (stereo not drawn) [Example 750, 2-((1-(4-methoxy-2,6-dimethylphenylsulfonyl)pyrrolidin-2-yl)methoxy)-N-((4-(3-phenyl-1-(pyrrolidin-1-yl)propyl)cyclohexyl)methyl)acetamide] | 52% | 101% | 94% |  | 
4 | O=C(COCC1CCCN1S(=O)(=O)c1c(Cl)cc(Cl)cc1Cl)NCC1CCC(C(CCc2ccccc2)N2CCOCC2)CC1 (stereo not drawn) [Example 751, N-((4-(1-morpholino-3-phenylpropyl)cyclohexyl)methyl)-2-((1-(2,4,6-trichlorophenylsulfonyl)pyrrolidin-2-yl)methoxy)acetamide] | 32% | 45% | 73% |  | 
5 | O=C(COCC1CCCN1S(=O)(=O)c1c(Cl)cc(Cl)cc1Cl)NCC1CCC(C(CCc2ccccc2)N2CCCC2)CC1 (stereo not drawn) [Example 752, N-((4-(3-phenyl-1-(pyrrolidin-1-yl)propyl)cyclohexyl)methyl)-2-((1-(2,4,6-trichlorophenylsulfonyl)pyrrolidin-2-yl)methoxy)acetamide] | 82% | 103% | 104% |  | 
6 | COc1cc(C)c(S(=O)(=O)N2CCCCC2COCC(=O)NCC2CCC(C(CCc3ccccc3)N3CCOCC3)CC2)c(C)c1 (stereo not drawn) [Example 753, 2-((1-(4-methoxy-2,6-dimethylphenylsulfonyl)piperidin-2-yl)methoxy)-N-((4-(1-morpholino-3-phenylpropyl)cyclohexyl)methyl)acetamide] | 17% | 104% | 103% |  | 
7 | O=C(COCC1CCCCN1S(=O)(=O)c1c(Cl)cc(Cl)cc1Cl)NCC1CCC(C(CCc2ccccc2)N2CCOCC2)CC1 (stereo not drawn) [Example 754, N-((4-(1-morpholino-3-phenylpropyl)cyclohexyl)methyl)-2-((1-(2,4,6-trichlorophenylsulfonyl)piperidin-2-yl)methoxy)acetamide] | 2% | 47% | 76% |  | 
8 | O=C(COCC1CCCCN1S(=O)(=O)c1c(Cl)cc(Cl)cc1Cl)NCC1CCC(C(CCc2ccccc2)N2CCCC2)CC1 (stereo not drawn) [Example 755, N-((4-(3-phenyl-1-(pyrrolidin-1-yl)propyl)cyclohexyl)methyl)-2-((1-(2,4,6-trichlorophenylsulfonyl)piperidin-2-yl)methoxy)acetamide] | 62% | 103% | 102% |  | 
9 | COc1cc(C)c(S(=O)(=O)N2CCCC(COCC(=O)NCC3CCC(C(CCc4ccccc4)N4CCOCC4)CC3)C2)c(C)c1 (stereo not drawn) [Example 756, 2-((1-(4-methoxy-2,6-dimethylphenylsulfonyl)piperidin-3-yl)methoxy)-N-((4-(1-morpholino-3-phenylpropyl)cyclohexyl)methyl)acetamide] | 5% | 64% | 43% |  | 
10 | COc1cc(C)c(S(=O)(=O)N2CCCC(COCC(=O)NCC3CCC(C(CCc4ccccc4)N4CCCC4)CC3)C2)c(C)c1 (stereo not drawn) [Example 757, 2-((1-(4-methoxy-2,6-dimethylphenylsulfonyl)piperidin-3-yl)methoxy)-N-((4-(3-phenyl-1-(pyrrolidin-1-yl)propyl)cyclohexyl)methyl)acetamide] | 32% | 103% | 100% |  | 
11 | O=C(COCC1CCCN(S(=O)(=O)c2c(Cl)cc(Cl)cc2Cl)C1)NCC1CCC(C(CCc2ccccc2)N2CCOCC2)CC1 (stereo not drawn) [Example 758, N-((4-(1-morpholino-3-phenylpropyl)cyclohexyl)methyl)-2-((1-(2,4,6-trichlorophenylsulfonyl)piperidin-3-yl)methoxy)acetamide] | 25% | 41% | 107% |  | 
12 | O=C(COCC1CCCN(S(=O)(=O)c2c(Cl)cc(Cl)cc2Cl)C1)NCC1CCC(C(CCc2ccccc2)N2CCCC2)CC1 (stereo not drawn) [Example 759, N-((4-(3-phenyl-1-(pyrrolidin-1-yl)propyl)cyclohexyl)methyl)-2-((1-(2,4,6-trichlorophenylsulfonyl)piperidin-3-yl)methoxy)acetamide] | 87% | 100% | 56% |  | 
13 | COc1cc(C)c(S(=O)(=O)N(C)CCOCC(=O)N2CCC(C(c3ccccc3)N3CCN(C)CC3)CC2)c(C)c1 (stereo not drawn) [Example 798, 4-methoxy-N,2,6-trimethyl-N-(2-(2-(4-((4-methylpiperazin-1-yl)(phenyl)methyl)piperidin-1-yl)-2-oxoethoxy)ethyl)benzenesulfonamide] | 19% |  |  | 110% | 100%
14 | COc1cc(C)c(S(=O)(=O)N(C)CCOCC(=O)N2CCC(C(c3cccc(F)c3)N3CCN(C)CC3)CC2)c(C)c1 (stereo not drawn) [Example 799, N-(2-(2-(4-((3-fluorophenyl)(4-methylpiperazin-1-yl)methyl)piperidin-1-yl)-2-oxoethoxy)ethyl)-4-methoxy-N,2,6-trimethylbenzenesulfonamide] | 16% |  |  | 110% | 100%
15 | COc1cc(C)c(S(=O)(=O)N2CCCCC2COCC(=O)N2CCC(C(c3cccc(F)c3)N3CCN(C)CC3)CC2)c(C)c1 (stereo not drawn) [Example 800, 1-(4-((3-fluorophenyl)(4-methylpiperazin-1-yl)methyl)piperidin-1-yl)-2-((1-(4-methoxy-2,6-dimethylphenylsulfonyl)piperidin-2-yl)methoxy)ethanone] | 7% |  |  | 108% | 97%
16 | COc1cc(C)c(S(=O)(=O)N(C)CCOCC(=O)N2CCC(C(CCc3ccccc3)N3CCN(C)CC3)CC2)c(C)c1 (stereo not drawn) [Example 801, 4-methoxy-N,2,6-trimethyl-N-(2-(2-(4-(1-(4-methylpiperazin-1-yl)-3-phenylpropyl)piperidin-1-yl)-2-oxoethoxy)ethyl)benzenesulfonamide] | 21% |  |  | 106% | 97%
17 | COc1cc(C)c(S(=O)(=O)N2CCCCC2COCC(=O)N2CCC(C(Cc3ccccc3)N3CCN(C)CC3)CC2)c(C)c1 (stereo not drawn) [Example 802, 2-((1-(4-methoxy-2,6-dimethylphenylsulfonyl)piperidin-2-yl)methoxy)-1-(4-(1-(4-methylpiperazin-1-yl)-2-phenylethyl)piperidin-1-yl)ethanone] | 27% |  |  | 106% | 97%
